Values after ≈ are worked out from the molar mass of the structure shown. Active and inactive are the calls of the source. The rule behind the calls is not given here.
How the values were obtained:
[1] = tested on: Candida albicans; assay: Antifungal activity against Candida albicans ATCC 24433 at 4 ug/ml by broth dilution method; assay type: functional, organism-based
[2] = tested on: Nakaseomyces glabratus; assay: Antifungal activity against Candida glabrata ATCC 90030 at 4 ug/ml by broth dilution method; assay type: functional, organism-based
[3] = tested on: Pichia kudriavzevii; assay: Antifungal activity against Candida krusei ATCC 6258 at 4 ug/ml by broth dilution method; assay type: functional, organism-based
[4] = tested on: Candida tropicalis; assay: Antifungal activity against Candida tropicalis ATCC 750 at 4 ug/ml by broth dilution method; assay type: functional, organism-based
[5] = tested on: Cryptococcus neoformans; assay: Antifungal activity against Cryptococcus neoformans ATCC 34664 at 4 ug/ml by broth dilution method; assay type: functional, organism-based
[6] = tested on: Aspergillus niger; assay: Antifungal activity against Aspergillus niger ATCC 16404 at 4 ug/ml by broth dilution method; assay type: functional, organism-based
[7] = tested on: Aspergillus fumigatus; assay: Antifungal activity against Aspergillus fumigatus ATCC 46645 at 4 ug/ml by broth dilution method; assay type: functional, organism-based
[8] = tested on: Fusarium proliferatum; assay: Antifungal activity against Fusarium proliferatum ATCC 10052 at 4 ug/ml by broth dilution method; assay type: functional, organism-based
[9] = tested on: Candida albicans; assay: Antifungal activity against Candida albicans ATCC 24433 at 8 ug/ml by broth dilution method; assay type: functional, organism-based
[10] = tested on: Nakaseomyces glabratus; assay: Antifungal activity against Candida glabrata ATCC 90030 at 8 ug/ml by broth dilution method; assay type: functional, organism-based
[11] = tested on: Pichia kudriavzevii; assay: Antifungal activity against Candida krusei ATCC 6258 at 8 ug/ml by broth dilution method; assay type: functional, organism-based
[12] = tested on: Cryptococcus neoformans; assay: Antifungal activity against Cryptococcus neoformans ATCC 34664 at 8 ug/ml by broth dilution method; assay type: functional, organism-based
[13] = tested on: Aspergillus niger; assay: Antifungal activity against Aspergillus niger ATCC 16404 at 8 ug/ml by broth dilution method; assay type: functional, organism-based
[14] = tested on: Aspergillus fumigatus; assay: Antifungal activity against Aspergillus fumigatus ATCC 46645 at 8 ug/ml by broth dilution method; assay type: functional, organism-based
[15] = tested on: Fusarium proliferatum; assay: Antifungal activity against Fusarium proliferatum ATCC 10052 at 8 ug/ml by broth dilution method; assay type: functional, organism-based
[16] = tested on: Candida albicans; assay: Antifungal activity against Candida albicans ATCC 24433 by broth dilution method; assay type: functional
[17] = tested on: Nakaseomyces glabratus; assay: Antifungal activity against Candida glabrata ATCC 90030 by broth dilution method; assay type: functional
[18] = tested on: Candida tropicalis; assay: Antifungal activity against Candida tropicalis ATCC 750 by broth dilution method; assay type: functional
[19] = tested on: Cryptococcus neoformans; assay: Antifungal activity against Cryptococcus neoformans ATCC 34664 by broth dilution method; assay type: functional
[20] = tested on: Pichia kudriavzevii; assay: Antifungal activity against Candida krusei ATCC 6258 by broth dilution method; assay type: functional
[21] = tested on: Pichia kudriavzevii; assay: Antifungal activity against Candida krusei ATCC 6258 at 16 ug/ml by broth dilution method; assay type: functional, organism-based
[22] = tested on: Aspergillus niger; assay: Antifungal activity against Aspergillus niger ATCC 16404 at 128 ug/ml by broth dilution method; assay type: functional, organism-based
[23] = tested on: Aspergillus fumigatus; assay: Antifungal activity against Aspergillus fumigatus ATCC 46645 at 128 ug/ml by broth dilution method; assay type: functional, organism-based
[24] = tested on: Fusarium proliferatum; assay: Antifungal activity against Fusarium proliferatum ATCC 10052 at 128 ug/ml by broth dilution method; assay type: functional, organism-based

| MIC50 [16] | MIC50 [17] | MIC50 [18] | MIC50 [19] | MIC50 [20] | Compound | Activity [3] | Activity [6] | Activity [7] | Activity [8] | Activity [13] | Activity [14] | Activity [15] | further results |
| --- | --- | --- | --- | --- | --- | --- | --- | --- | --- | --- | --- | --- | --- |
| – | – | – | – | – | O=C1OCC(c2ccc(F)cc2F)=C1c1ccc(Cl)c(Cl)c1 | inactive | inactive | inactive | inactive | – | – | – | Activity [1]: inactive; Activity [2]: inactive; Activity [4]: inactive; Activity [5]: inactive |
| – | – | – | – | – | O=C1OCC(c2ccc(F)cc2F)=C1c1ccc(Cl)cc1 | – | – | – | – | inactive | inactive | inactive | Activity [9]: inactive; Activity [10]: inactive; Activity [11]: inactive; Activity [12]: inactive |
| 0.5 µg/mL (≈ 1.02 µM) | 0.5 µg/mL (≈ 1.02 µM) | 2 µg/mL (≈ 4.09 µM) | – | – | O=C1OCC(c2ccccc2)=C1c1ccc(OCC(O)(Cn2cncn2)c2ccc(F)cc2F)cc1 (racemic) | inactive | inactive | inactive | inactive | – | – | – | Activity [5]: inactive |
| 1 µg/mL (≈ 1.92 µM) | 1 µg/mL (≈ 1.92 µM) | 4 µg/mL (≈ 7.7 µM) | 2 µg/mL (≈ 3.85 µM) | – | COc1ccc(C2=C(c3ccc(OCC(O)(Cn4cncn4)c4ccc(F)cc4F)cc3)C(=O)OC2)cc1 (racemic) | – | – | – | – | inactive | inactive | inactive | Activity [11]: inactive |
| 0.5 µg/mL (≈ 0.993 µM) | 1 µg/mL (≈ 1.99 µM) | 2 µg/mL (≈ 3.97 µM) | 2 µg/mL (≈ 3.97 µM) | – | Cc1ccc(C2=C(c3ccc(OCC(O)(Cn4cncn4)c4ccc(F)cc4F)cc3)C(=O)OC2)cc1 (racemic) | inactive | inactive | inactive | inactive | – | – | – | – |
| 0.25 µg/mL (≈ 0.493 µM) | 0.5 µg/mL (≈ 0.985 µM) | 1 µg/mL (≈ 1.97 µM) | 1 µg/mL (≈ 1.97 µM) | 8 µg/mL (≈ 15.8 µM) | O=C1OCC(c2ccc(F)cc2)=C1c1ccc(OCC(O)(Cn2cncn2)c2ccc(F)cc2F)cc1 (racemic) | – | – | – | – | inactive | inactive | inactive | – |
| 0.5 µg/mL (≈ 0.952 µM) | 0.5 µg/mL (≈ 0.952 µM) | 2 µg/mL (≈ 3.81 µM) | 2 µg/mL (≈ 3.81 µM) | 8 µg/mL (≈ 15.2 µM) | O=C1OCC(c2ccc(F)cc2F)=C1c1ccc(OCC(O)(Cn2cncn2)c2ccc(F)cc2F)cc1 (racemic) | – | – | – | – | inactive | inactive | inactive | – |
| 0.5 µg/mL (≈ 0.88 µM) | 2 µg/mL (≈ 3.52 µM) | 4 µg/mL (≈ 7.04 µM) | 1 µg/mL (≈ 1.76 µM) | 8 µg/mL (≈ 14.1 µM) | O=C1OCC(c2ccc(Br)cc2)=C1c1ccc(OCC(O)(Cn2cncn2)c2ccc(F)cc2F)cc1 (racemic) | – | – | – | – | inactive | inactive | inactive | – |
| 0.5 µg/mL (≈ 0.93 µM) | 0.5 µg/mL (≈ 0.93 µM) | 2 µg/mL (≈ 3.72 µM) | 2 µg/mL (≈ 3.72 µM) | – | COc1cc(C2=C(c3ccc(F)cc3)COC2=O)ccc1OCC(O)(Cn1cncn1)c1ccc(F)cc1F (racemic) | – | – | – | – | inactive | inactive | inactive | Activity [21]: inactive |
| 1 µg/mL (≈ 1.67 µM) | 2 µg/mL (≈ 3.34 µM) | 4 µg/mL (≈ 6.68 µM) | 8 µg/mL (≈ 13.4 µM) | – | COc1cc(C2=C(c3ccc(Br)cc3)COC2=O)ccc1OCC(O)(Cn1cncn1)c1ccc(F)cc1F (racemic) | inactive | inactive | inactive | inactive | – | – | – | – |
| 0.5 µg/mL (≈ 1.01 µM) | 0.5 µg/mL (≈ 1.01 µM) | 2 µg/mL (≈ 4.04 µM) | – | – | O=C1OCC(c2cccs2)=C1c1ccc(OCC(O)(Cn2cncn2)c2ccc(F)cc2F)cc1 (racemic) | – | – | – | – | inactive | inactive | inactive | Activity [11]: inactive; Activity [12]: inactive |
| 0.5 µg/mL (≈ 1.39 µM) | 0.5 µg/mL (≈ 1.39 µM) | 4 µg/mL (≈ 11.1 µM) | 2 µg/mL (≈ 5.57 µM) | 16 µg/mL (≈ 44.5 µM) | O=Cc1ccc(OCC(O)(Cn2cncn2)c2ccc(F)cc2F)cc1 (racemic) | – | – | – | – | – | – | – | Activity [22]: inactive; Activity [23]: inactive; Activity [24]: inactive |
